This is an account of results in ChEMBL document CHEMBL5291721, “A preclinical secondary pharmacology resource illuminates target-adverse drug reaction associations of marketed drugs” (Nat Commun, 2023).

Experiment [1] concerns the target Sodium-dependent dopamine transporter (Homo sapiens, UniProt Q01959).
Experiment [2] concerns the target Vasopressin V1a receptor (Homo sapiens, UniProt P37288).
Experiment [3] concerns the target T1, Alpha-2B adrenergic receptor (Homo sapiens, UniProt P18089).
T1 sequence (P18089 whole entry): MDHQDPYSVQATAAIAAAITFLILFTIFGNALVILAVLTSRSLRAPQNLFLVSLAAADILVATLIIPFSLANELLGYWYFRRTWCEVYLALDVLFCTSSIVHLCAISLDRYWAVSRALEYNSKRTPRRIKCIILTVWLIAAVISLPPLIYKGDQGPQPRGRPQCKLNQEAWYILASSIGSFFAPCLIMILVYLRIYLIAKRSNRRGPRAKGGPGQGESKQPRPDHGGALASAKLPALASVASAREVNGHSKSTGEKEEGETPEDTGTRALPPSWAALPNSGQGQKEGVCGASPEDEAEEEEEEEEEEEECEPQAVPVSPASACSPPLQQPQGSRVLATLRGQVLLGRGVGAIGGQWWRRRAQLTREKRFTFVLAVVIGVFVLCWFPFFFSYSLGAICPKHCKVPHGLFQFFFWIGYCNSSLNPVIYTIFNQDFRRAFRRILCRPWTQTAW

For experiment [4], the target named is 3',5'-cyclic-AMP phosphodiesterase 4D (Homo sapiens, UniProt Q08499). It counts as functional.
Sequence of 3',5'-cyclic-AMP phosphodiesterase 4D (Q08499 whole entry): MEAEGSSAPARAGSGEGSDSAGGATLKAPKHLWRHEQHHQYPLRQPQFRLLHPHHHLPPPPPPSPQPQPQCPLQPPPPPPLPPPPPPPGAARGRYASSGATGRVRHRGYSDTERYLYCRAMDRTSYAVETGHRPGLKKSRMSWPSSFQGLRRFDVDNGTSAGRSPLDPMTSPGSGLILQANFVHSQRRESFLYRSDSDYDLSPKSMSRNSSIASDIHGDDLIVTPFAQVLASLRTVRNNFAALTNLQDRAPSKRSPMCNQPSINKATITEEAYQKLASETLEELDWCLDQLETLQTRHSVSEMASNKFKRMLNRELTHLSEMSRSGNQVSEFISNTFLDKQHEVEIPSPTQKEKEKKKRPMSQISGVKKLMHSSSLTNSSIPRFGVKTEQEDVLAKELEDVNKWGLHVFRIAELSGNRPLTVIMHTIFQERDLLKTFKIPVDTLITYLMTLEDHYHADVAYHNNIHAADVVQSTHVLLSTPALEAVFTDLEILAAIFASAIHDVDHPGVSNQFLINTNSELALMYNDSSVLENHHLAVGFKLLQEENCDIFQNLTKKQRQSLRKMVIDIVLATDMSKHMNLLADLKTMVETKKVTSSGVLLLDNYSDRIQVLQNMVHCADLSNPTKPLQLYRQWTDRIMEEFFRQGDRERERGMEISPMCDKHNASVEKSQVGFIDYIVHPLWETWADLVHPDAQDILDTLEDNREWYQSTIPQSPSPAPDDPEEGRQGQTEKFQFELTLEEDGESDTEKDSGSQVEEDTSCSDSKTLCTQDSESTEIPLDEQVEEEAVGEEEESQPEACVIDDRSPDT
In experiment [5] the target is T2, Alpha-2C adrenergic receptor (Homo sapiens, UniProt P18825).
T2 sequence (P18825 whole entry): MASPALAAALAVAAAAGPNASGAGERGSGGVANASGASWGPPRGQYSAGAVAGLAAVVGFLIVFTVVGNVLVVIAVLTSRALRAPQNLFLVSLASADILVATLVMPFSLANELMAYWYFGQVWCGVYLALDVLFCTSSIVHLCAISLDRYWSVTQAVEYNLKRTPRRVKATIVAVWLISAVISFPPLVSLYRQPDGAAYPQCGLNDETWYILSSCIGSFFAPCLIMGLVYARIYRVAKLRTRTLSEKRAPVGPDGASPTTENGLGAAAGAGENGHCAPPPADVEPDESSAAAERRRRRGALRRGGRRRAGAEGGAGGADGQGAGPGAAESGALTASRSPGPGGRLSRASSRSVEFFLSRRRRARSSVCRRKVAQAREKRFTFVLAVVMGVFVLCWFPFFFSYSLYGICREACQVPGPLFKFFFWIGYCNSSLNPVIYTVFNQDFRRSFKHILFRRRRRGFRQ
It counts as functional.

Experiment [6] addresses Voltage-gated inwardly rectifying potassium channel KCNH2 (Homo sapiens, UniProt Q12809). The class given is functional. Particulars: read-out: AC50.
Experiment [7] concerns the target T3, Adenosine receptor A3 (Homo sapiens, UniProt P0DMS8).
T3 sequence (P0DMS8 whole entry): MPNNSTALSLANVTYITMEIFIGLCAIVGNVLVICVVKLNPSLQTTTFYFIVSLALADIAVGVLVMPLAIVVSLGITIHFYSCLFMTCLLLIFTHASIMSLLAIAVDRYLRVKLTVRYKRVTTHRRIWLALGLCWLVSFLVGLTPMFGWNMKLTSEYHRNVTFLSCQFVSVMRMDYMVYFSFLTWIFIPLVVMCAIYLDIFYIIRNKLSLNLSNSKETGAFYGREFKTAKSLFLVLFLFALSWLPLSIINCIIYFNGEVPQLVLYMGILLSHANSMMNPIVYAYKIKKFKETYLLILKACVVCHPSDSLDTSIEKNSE

Experiment [8] addresses cGMP-inhibited 3',5'-cyclic phosphodiesterase 3A (Homo sapiens, UniProt Q14432). It counts as functional.
Experiment [9] has as its target D(3) dopamine receptor (Homo sapiens, UniProt P35462).
Experiment [10] concerns the target Motilin receptor (Homo sapiens, UniProt O43193).
In experiment [11] the target is T4, Alpha-2A adrenergic receptor (Homo sapiens, UniProt P08913).
T4 sequence (P08913 whole entry): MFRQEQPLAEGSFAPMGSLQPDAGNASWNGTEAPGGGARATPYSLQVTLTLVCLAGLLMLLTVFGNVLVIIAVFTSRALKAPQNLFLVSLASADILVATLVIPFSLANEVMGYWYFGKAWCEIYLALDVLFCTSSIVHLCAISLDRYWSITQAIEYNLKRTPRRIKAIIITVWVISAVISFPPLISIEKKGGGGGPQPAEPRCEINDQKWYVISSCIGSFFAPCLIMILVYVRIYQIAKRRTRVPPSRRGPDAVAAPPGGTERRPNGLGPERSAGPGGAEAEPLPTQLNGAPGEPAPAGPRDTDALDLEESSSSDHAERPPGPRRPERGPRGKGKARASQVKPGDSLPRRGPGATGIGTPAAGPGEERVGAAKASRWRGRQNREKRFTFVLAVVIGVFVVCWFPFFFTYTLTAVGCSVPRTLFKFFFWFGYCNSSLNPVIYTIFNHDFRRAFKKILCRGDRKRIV
It counts as functional, cell-based.

The target of experiment [12] is Melanocortin receptor 3 (Homo sapiens, UniProt P41968).
The target of experiment [13] is Cannabinoid receptor 1 (Homo sapiens, UniProt P21554). The class given is functional, cell-based.
For experiment [14], the target named is D(1A) dopamine receptor (Homo sapiens, UniProt P21728). It counts as functional, cell-based.
Sequence of D(1A) dopamine receptor (P21728 whole entry): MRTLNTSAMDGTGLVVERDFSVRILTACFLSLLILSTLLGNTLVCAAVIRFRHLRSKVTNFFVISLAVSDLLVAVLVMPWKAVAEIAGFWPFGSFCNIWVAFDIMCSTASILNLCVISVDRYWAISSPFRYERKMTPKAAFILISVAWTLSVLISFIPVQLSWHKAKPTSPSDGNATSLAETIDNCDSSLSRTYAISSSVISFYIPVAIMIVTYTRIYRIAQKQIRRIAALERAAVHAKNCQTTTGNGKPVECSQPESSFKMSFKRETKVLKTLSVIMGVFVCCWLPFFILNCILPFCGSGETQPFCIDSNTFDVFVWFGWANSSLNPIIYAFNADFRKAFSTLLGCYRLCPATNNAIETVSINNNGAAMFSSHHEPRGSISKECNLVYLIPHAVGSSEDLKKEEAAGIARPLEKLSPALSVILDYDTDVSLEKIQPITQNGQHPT
For experiment [15], the target named is Sodium-dependent serotonin transporter (Homo sapiens, UniProt P31645).
Sequence of Sodium-dependent serotonin transporter (P31645 whole entry): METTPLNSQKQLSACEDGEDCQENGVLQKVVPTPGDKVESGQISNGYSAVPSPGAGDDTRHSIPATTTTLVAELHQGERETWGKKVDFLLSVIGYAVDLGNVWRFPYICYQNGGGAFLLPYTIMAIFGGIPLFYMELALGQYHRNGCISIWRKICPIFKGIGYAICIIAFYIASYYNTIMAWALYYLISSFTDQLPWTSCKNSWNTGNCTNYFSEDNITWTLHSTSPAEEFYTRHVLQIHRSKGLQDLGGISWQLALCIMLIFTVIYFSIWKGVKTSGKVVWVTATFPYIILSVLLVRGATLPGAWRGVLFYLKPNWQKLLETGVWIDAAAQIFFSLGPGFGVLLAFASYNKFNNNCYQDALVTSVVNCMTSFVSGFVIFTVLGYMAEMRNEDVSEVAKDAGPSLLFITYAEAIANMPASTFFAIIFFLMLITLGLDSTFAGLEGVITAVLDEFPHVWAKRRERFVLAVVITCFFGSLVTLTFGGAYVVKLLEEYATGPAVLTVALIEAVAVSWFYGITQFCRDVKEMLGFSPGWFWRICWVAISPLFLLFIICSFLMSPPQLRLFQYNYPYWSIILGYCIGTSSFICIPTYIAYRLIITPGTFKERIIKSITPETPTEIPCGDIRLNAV
Experiment [16] deals with Muscarinic acetylcholine receptor M3 (Homo sapiens, UniProt P20309).
For experiment [17], the target named is Vasopressin V2 receptor (Homo sapiens, UniProt P30518).
Sequence of Vasopressin V2 receptor (P30518 whole entry): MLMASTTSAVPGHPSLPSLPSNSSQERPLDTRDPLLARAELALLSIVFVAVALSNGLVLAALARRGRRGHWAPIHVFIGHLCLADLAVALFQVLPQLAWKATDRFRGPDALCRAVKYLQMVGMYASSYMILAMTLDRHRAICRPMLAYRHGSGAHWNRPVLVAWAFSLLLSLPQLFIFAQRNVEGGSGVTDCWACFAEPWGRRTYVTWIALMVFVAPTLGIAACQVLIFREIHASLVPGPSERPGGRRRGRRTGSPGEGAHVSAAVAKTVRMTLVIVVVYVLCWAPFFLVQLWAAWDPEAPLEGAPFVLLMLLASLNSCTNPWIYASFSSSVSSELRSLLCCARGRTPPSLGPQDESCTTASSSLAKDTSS
The target in experiment [18] is T5, Neuropeptide Y receptor type 1 (Homo sapiens, UniProt P25929).
T5 sequence (P25929 whole entry): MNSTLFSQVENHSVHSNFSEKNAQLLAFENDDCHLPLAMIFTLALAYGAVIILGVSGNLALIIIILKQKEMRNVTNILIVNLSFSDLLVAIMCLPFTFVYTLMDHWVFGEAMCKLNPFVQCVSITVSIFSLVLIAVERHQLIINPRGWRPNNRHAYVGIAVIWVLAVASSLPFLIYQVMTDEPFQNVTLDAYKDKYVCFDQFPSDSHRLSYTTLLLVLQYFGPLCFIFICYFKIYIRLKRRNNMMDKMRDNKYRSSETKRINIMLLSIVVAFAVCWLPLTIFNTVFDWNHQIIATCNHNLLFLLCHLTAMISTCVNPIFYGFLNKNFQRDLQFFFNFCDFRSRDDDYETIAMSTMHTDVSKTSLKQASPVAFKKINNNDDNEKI
Note: assay procedure not described here.

Sequence of Vasopressin V1a receptor (P37288 whole entry): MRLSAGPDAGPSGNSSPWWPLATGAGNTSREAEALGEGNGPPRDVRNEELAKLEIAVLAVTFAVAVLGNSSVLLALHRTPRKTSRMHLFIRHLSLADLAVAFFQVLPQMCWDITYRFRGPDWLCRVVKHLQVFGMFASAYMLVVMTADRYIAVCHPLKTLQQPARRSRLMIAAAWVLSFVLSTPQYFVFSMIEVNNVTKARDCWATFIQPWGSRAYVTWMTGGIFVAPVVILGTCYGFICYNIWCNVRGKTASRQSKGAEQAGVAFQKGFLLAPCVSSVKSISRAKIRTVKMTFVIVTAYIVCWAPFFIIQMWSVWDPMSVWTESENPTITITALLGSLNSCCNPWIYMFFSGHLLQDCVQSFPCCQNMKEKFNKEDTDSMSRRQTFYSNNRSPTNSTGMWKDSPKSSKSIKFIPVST
Sequence of D(3) dopamine receptor (P35462 whole entry): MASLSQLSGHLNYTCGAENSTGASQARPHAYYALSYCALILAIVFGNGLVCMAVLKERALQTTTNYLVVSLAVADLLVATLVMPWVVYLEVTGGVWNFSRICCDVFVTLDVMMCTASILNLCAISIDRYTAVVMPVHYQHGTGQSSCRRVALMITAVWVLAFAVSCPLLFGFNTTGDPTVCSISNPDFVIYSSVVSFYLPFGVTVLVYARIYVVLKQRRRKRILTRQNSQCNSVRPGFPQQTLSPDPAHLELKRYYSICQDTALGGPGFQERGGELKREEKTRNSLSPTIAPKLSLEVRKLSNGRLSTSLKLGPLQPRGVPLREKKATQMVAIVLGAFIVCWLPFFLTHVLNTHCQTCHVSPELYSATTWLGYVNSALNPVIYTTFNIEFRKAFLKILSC
Sequence of Voltage-gated inwardly rectifying potassium channel KCNH2 (Q12809 whole entry): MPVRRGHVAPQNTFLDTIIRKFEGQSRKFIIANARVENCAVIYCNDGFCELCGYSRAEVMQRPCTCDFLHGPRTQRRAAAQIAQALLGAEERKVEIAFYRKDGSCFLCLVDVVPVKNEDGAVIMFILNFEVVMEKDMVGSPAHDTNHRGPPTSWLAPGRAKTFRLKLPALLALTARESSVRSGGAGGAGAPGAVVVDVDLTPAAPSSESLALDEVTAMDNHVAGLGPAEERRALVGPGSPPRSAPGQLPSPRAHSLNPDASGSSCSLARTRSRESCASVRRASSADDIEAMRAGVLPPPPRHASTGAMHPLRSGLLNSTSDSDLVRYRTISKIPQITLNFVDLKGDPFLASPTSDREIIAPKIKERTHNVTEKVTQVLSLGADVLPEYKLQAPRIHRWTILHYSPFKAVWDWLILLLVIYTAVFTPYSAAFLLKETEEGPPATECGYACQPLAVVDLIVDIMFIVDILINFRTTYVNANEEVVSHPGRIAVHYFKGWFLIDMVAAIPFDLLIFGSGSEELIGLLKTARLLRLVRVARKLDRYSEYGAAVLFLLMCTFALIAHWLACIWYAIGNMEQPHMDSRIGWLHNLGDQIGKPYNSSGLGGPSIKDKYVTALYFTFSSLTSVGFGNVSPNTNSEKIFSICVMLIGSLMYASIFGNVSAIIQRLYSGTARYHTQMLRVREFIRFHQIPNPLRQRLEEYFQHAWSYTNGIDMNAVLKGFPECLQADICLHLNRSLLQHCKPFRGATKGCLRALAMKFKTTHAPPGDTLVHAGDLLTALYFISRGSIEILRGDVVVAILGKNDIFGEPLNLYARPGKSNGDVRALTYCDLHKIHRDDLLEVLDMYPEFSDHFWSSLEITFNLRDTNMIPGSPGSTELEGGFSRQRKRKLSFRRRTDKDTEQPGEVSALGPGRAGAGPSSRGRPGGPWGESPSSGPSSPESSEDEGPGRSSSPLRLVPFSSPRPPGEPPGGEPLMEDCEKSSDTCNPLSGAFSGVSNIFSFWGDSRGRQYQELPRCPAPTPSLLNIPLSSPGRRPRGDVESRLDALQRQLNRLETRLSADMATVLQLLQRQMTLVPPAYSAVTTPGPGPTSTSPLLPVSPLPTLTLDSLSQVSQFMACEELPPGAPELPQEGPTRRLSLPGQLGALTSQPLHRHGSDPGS
Sequence of Sodium-dependent dopamine transporter (Q01959 whole entry): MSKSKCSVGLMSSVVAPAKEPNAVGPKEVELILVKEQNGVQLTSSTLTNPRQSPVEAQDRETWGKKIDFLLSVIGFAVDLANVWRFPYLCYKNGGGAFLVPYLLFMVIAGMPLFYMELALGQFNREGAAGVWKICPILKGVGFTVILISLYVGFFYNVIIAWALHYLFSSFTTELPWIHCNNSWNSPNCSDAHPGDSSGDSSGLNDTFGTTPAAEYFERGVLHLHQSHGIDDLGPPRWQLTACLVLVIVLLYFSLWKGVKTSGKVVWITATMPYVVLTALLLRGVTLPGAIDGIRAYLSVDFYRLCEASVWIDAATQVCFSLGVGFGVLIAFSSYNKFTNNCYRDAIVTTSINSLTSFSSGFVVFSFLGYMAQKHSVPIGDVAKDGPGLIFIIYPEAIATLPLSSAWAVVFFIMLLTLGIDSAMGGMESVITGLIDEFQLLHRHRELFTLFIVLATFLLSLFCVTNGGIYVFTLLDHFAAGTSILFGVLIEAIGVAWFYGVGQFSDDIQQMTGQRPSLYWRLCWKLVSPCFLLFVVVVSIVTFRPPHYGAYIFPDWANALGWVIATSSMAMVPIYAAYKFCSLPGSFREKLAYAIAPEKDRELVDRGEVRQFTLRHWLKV

In general, AC50 refers to the concentration at which the activity in the assay is half-maximal. As to `CC(=O)O[C@H]1CC[C@@]2(C)C(=CC[C@@H]3[C@@H]2CC[C@]2(C)C(c4cccnc4)=CC[C@@H]32)C1` [ABIRATERONE ACETATE], the concentration at half-maximal activity (AC50) in experiment [1], in experiment [2], in [3], in experiment [4], in [5] and in experiment [6] was > 30 µM in each case. Further, the AC50 in experiment [7], in [8], in [9], in [10], in experiment [11] and in experiment [12] was > 30 µM each time. The AC50 in experiment [13], in experiment [14], in [15] and in [16] was > 30 µM each time.

For the compound `CC[C@@H]1C(=O)OC[C@@H]1Cc1cncn1C` [PILOCARPINE], the AC50 is > 30 µM in experiment [1]; > 30 µM in [2]; > 30 µM in experiment [17]; > 10 µM in [3]; > 30 µM in experiment [4]; > 10 µM in experiment [5]. The AC50 in experiment [6] is > 30 µM; in experiment [7] it was > 30 µM; in experiment [8], > 30 µM; in experiment [9], > 30 µM; in experiment [10] it was > 10 µM; in [11], > 10 µM. Also, the AC50 in [12] was > 30 µM; in [13], > 30 µM; in [14], > 10 µM; in [18], > 30 µM; in [15], > 30 µM.

Turning to `COC(=O)[C@H]1[C@H]2C[C@@H]3c4[nH]c5cc(OC)ccc5c4CCN3C[C@H]2C[C@@H](OC(=O)/C=C/c2cc(OC)c(OC)c(OC)c2)[C@@H]1OC` [RESCINNAMINE], the AC50 in experiment [1] was 18.9 µM; in experiment [2], > 10 µM; in experiment [17] it was > 10 µM; in experiment [3], > 10 µM; in [4], > 30 µM; in [5], > 10 µM. The concentration at half-maximal activity (AC50) is 0.988 µM in experiment [6]; > 30 µM in [7]; > 30 µM in [8]; > 30 µM in [9]; > 10 µM in experiment [10]; > 10 µM in experiment [11]. In addition, the AC50 in experiment [12] is > 10 µM; in experiment [14] it was > 30 µM; in [18], > 10 µM; in [15] it was > 30 µM; in experiment [16], > 30 µM.

As for `C=CCC1(C(C)CC)C(=O)NC(=O)NC1=O` (centres undefined) [TALBUTAL], the half-maximal activity concentration (AC50) in experiment [1] was > 10 µM; in experiment [2] it was > 10 µM; in experiment [17], > 10 µM; in [3], > 10 µM; in experiment [4], > 30 µM; in experiment [5], > 10 µM. In addition, the half-maximal activity concentration (AC50) in experiment [6] is > 30 µM; in experiment [7] it was > 10 µM; in experiment [8] it was > 30 µM; in [9], > 30 µM; in [10], > 10 µM; in [11] it was > 10 µM. Moreover, the AC50 is > 10 µM in experiment [12]; > 10 µM in experiment [14]; > 10 µM in experiment [18]; > 10 µM in experiment [15]; > 30 µM in [16].

In the case of `C[C@H](CSC(=O)c1ccccc1)C(=O)N1C[C@@H](Sc2ccccc2)C[C@H]1C(=O)O` [ZOFENOPRIL], the AC50 in experiment [1], in experiment [2], in [17], in experiment [3], in experiment [4] and in experiment [5] was > 10 µM throughout. For the same compound, the AC50 in experiment [6] was > 30 µM; in experiment [7] it was > 10 µM; in experiment [8], > 30 µM; in [9], > 30 µM; in experiment [10], > 10 µM; in experiment [11], > 10 µM. Moreover, the AC50 is > 10 µM in experiment [12]; > 10 µM in experiment [14]; > 10 µM in experiment [18]; > 10 µM in experiment [15]; > 30 µM in [16].
